# Values of other authors in US8592481B2 (Depomed, Inc., priority 2005, dated 2013).
# Settings: in vivo
substance,measurement,value
1-(aminomethyl)cyclohexane acetic acid [gabapentin],circulating gabapentin bound to plasma proteins,3%
